The target in one test is EGFR^L858R/T790M/C797S (Homo sapiens, UniProt P00533, C797S/L858R/T790M). Briefly: EGFR inhibitory activity assay (TK-substrate-biotin/ATP, 665/615 ratio). The test is classed as biochemical. The note with it: kinase inhibition. The method, then:
EGFR Inhibitory Activity Assay
(1) A compound stock solution was prepared and diluted 3× to obtain a compound dilution; 10 nL of the compound dilution was transferred to a 384-well plate (784075, Greiner) by Echo 550;
(2) The plate was sealed, and centrifuged at 1,000 g for 1 min;
(4) 5 μl of the 2×EGFR protein working solution was added to the 384-well plate from step (2), centrifuged at 1,000 g for 30 s, and allowed to stand at room temperature (mixed thoroughly) for 10 min;
(6) 5 µL of the TK-substrate-biotin and ATP (the mixture prepared in step (5)) was added to the 384-well plate from step (4) to initiate the reaction;
(7) The mixture was centrifuged at 1,000 g for 30 s; the plate was sealed, and allowed to stand (and reacted) at room temperature for 40 min;
(8) 4×Sa-XL 665 and TK-antibody-Cryptate were prepared with detection buffer;
(9) 5 µL of the Sa-XL 665 and 5 µL of the TK-antibody-Cryptate were added successively to the 384-well plate from step (7);
(10) The mixture was centrifuged at 1,000 g for 30 s, and allowed to stand (reacted) at room temperature for 1 h;
(11) The fluorescence values were read at 615 nm and 665 nm by enzyme labeling instrument (PerkinElmer, 74785).
The ratio (665/615) of each well was calculated.
Formula of inhibition rate (%): […]
Ratiocmpd: Ratio (665/615) value of assay compound.
Ratiopositive: Average ratio (665/615) value of positive control.
Ratiovehicle: Average ratio (665/615) value of negative control.
(§1) The nonlinear regression curve (dose response-variable slope) between the value of inhibition rate (%) and the logarithm of compound concentration was fitted with graphpad prism 8.0, the effect dose curve of compound was drawn, and the IC50 value was calculated.

The target in test [1] is Ba/F3(EGFR^L858R/T790M/C797S) cells (Homo sapiens, UniProt P00533, T790M/C797S/L858R, cells depend on it). Nature of the test: Assay of activity on Ba/F3 cells (CTG, 72 h). Type of test: cell-based. The note with it: read-out: IC50 (nM) Ba/F3 (EGFR^L858R/T790M/C797S). The method, then: (§2) (2) A compound stock solution was prepared, and then diluted 3× to obtain a compound dilution. 30 nL of the compound dilution was added to a 384-well plate by Echo (Labcyte, Echo550). The cells were incubated in an incubator at 37° C. and 5% CO2 for 72 h.
(§3) The percent inhibition rate (% inhibition) was calculated by the following formula
(§4) LUMcmpd: Luminescence value of assay compound.
(§5) LUMpositive: Average LUM value of positive drug at a concentration of 10 μM.
(§6) LUMvehicle. Average LUM value of negative control group without drug treatment.
as §1
(§7) Y=Bottom+(Top−Bottom)/(1+1^((LogIC50−X)*HillSlope))
(§8) X-axis: logarithm of compound concentration; Y axis: inhibition rate ([…]).

Test [2] deals with Ba/F3(EGFR^Del19/T790M/C797S) cells (Homo sapiens, UniProt P00533, DEL746-750/T790M/C797S, cells depend on it). Briefly: Assay of activity on Ba/F3 cells (CTG, 72 h). The test is classed as cell-based. The note with it: read-out: IC50 (nM) Ba/F3 (EGFR^Del19/T790M/C797S). Here is the method: as §2, §3, §4, §5, §6, §1, §7, §8
Chain of Ba/F3(EGFR^Del19/T790M/C797S) cells (P00533 with tags, fused parts or gaps DEL746-750/T790M/C797S): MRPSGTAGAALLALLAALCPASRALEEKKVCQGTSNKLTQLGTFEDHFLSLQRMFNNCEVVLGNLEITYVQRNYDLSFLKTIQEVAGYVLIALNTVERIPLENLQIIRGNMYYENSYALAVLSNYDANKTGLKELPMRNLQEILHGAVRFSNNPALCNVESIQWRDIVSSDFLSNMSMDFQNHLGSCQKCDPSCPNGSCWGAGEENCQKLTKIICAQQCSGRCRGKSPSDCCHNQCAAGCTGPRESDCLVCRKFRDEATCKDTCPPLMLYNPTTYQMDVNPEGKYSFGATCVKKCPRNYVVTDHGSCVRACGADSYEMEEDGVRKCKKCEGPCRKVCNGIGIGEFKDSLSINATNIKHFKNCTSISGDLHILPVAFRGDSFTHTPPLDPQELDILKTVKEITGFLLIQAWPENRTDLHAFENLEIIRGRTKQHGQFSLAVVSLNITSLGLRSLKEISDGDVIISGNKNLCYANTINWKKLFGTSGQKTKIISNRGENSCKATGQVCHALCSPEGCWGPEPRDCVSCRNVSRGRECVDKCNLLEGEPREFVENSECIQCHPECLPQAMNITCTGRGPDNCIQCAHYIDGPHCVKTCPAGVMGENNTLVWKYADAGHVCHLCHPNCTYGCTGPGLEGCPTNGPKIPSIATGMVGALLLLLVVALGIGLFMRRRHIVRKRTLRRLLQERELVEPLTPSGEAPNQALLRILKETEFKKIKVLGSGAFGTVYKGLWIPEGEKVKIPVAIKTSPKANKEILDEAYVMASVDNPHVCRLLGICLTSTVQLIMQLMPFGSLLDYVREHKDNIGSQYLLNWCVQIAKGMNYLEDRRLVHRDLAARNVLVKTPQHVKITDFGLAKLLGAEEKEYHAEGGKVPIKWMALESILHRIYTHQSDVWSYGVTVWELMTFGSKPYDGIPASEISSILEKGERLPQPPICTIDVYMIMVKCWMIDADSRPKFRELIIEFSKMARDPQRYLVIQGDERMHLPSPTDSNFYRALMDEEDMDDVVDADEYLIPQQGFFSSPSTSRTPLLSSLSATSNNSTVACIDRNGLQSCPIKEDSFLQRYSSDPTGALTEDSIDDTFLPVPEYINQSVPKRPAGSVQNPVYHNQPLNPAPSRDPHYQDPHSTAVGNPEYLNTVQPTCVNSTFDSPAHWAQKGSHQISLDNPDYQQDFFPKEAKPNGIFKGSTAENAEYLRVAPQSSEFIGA

Chain of EGFR^L858R/T790M/C797S (P00533 25-1210 T790M/C797S/L858R): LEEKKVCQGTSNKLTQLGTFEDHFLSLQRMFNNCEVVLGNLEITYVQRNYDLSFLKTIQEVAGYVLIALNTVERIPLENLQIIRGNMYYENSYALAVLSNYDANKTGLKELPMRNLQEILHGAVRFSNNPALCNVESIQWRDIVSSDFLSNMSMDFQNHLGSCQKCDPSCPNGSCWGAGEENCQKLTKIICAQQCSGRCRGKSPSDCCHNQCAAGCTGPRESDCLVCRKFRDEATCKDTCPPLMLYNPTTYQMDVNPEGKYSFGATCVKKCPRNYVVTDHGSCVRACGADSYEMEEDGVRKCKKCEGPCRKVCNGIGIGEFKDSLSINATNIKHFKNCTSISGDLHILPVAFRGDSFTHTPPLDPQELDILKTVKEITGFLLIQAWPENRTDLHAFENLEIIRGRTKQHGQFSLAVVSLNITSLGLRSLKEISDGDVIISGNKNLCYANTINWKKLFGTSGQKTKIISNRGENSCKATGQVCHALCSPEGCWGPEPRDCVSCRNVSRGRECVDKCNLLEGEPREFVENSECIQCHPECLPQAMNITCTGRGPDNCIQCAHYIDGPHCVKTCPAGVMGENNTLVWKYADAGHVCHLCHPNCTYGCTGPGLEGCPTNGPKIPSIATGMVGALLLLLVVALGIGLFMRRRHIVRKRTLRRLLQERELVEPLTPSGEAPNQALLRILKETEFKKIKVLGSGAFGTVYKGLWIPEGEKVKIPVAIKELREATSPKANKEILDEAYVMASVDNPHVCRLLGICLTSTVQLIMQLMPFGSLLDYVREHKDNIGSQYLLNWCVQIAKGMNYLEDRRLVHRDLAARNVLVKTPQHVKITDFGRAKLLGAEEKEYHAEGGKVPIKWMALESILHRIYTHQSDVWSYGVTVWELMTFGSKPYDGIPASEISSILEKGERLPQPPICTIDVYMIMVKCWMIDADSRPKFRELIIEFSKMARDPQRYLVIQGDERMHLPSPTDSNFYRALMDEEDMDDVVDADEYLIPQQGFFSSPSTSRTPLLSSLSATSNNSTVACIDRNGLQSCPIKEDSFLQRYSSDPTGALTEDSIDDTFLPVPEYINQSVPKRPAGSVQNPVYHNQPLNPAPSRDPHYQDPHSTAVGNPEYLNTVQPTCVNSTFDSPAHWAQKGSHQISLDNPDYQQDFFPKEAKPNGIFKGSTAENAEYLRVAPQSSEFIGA
Chain of Ba/F3(EGFR^L858R/T790M/C797S) cells (P00533 whole entry T790M/C797S/L858R): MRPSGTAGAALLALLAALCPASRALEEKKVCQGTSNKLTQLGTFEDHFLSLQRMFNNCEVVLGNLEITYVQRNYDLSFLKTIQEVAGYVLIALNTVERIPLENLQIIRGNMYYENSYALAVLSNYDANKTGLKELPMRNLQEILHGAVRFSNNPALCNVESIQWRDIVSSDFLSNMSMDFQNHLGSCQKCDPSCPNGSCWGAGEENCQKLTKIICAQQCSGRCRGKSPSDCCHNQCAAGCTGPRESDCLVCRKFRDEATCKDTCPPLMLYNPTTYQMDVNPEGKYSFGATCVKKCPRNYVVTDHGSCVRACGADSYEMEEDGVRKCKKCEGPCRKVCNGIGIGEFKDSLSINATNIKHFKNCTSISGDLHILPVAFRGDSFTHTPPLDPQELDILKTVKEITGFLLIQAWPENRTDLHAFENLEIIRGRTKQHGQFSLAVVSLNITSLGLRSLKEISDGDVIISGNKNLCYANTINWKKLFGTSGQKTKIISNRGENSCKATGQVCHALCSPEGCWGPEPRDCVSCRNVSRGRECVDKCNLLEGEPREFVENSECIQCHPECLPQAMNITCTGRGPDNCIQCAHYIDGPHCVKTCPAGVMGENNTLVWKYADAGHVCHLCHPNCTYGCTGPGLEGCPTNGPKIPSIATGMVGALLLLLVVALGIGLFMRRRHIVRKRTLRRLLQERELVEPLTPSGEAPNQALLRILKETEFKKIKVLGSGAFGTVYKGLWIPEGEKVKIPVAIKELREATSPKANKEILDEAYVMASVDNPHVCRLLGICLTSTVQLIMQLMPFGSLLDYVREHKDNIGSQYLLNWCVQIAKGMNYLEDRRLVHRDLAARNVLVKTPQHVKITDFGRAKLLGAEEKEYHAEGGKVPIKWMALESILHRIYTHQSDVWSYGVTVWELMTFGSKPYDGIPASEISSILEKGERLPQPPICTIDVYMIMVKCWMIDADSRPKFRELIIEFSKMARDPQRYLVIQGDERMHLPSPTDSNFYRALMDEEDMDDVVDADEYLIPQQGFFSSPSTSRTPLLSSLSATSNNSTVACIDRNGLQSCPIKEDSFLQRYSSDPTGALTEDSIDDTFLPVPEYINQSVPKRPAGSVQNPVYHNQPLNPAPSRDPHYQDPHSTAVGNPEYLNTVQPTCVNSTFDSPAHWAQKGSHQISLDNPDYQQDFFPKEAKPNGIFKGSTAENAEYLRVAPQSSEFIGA

The IC50 is the point on the concentration scale where inhibition reaches its midpoint. Turning to `COc1cc(N2CCC(N3CCN(CC(=O)NCCNc4cccc5c4C(=O)N(C4CCC(=O)NC4=O)C5=O)CC3)CC2)ccc1Nc1ncc(Cl)c(Nc2ccccc2P(C)(C)=O)n1` (stereo not drawn) [Compound A6, 2-(4-(1-(4-((5-chloro-4-((2-(dimethylphosphoryl)phenyl)amino)pyrimidin-2-yl)amino)-3-methoxyphenyl)piperidin-4-yl)piperazin-1-yl)-N-(2-((2-(2,6-dioxopiperidin-3-yl)-1,3-dioxoisoindolin-4-yl)amino)ethyl)acetamide], the half-inhibitory concentration (IC50) at EGFR^L858R/T790M/C797S was 1 to 100 nM.
On to `C=Cc1cnc(Nc2ccc(N3CCC(N4CCN(CCCCCCCCCOc5cccc6c5C(=O)N(C5CCC(=O)NC5=O)C6=O)CC4)CC3)cc2OC)nc1Nc1ccccc1P(C)(C)=O` (stereo not drawn) [Compound C25, 4-((9-(4-(1-(4-((4-((2-(dimethylphosphoryl)phenyl)amino)-5-vinylpyrimidin-2-yl)amino)-3-methoxyphenyl)piperidin-4-yl)piperazin-1-yl)nonyl)oxy)-2-(2,6-dioxopiperidin-3-yl)isoindoline-1,3-dione], for which, on EGFR^L858R/T790M/C797S, the IC50 fell in the range of 101 to 200 nM. Besides, the GI50 in test [1] lay in the range of 201 to 300 nM.
For `COc1cc(N2CCC(N3CCN(CC(=O)N4CCC(OCC(=O)Nc5cccc6c5CN(C5CCC(=O)NC5=O)C6=O)CC4)CC3)CC2)ccc1Nc1ncc(Cl)c(Nc2ccccc2P(C)(C)=O)n1` (stereo not drawn) [Compound C78, 2-((1-(2-(4-(1-(4-((5-chloro-4-((2-(dimethylphosphoryl)phenyl)amino)pyrimidin-2-yl)amino)-3-methoxyphenyl)piperidin-4-yl)piperazin-1-yl)acetyl)piperidin-4-yl)oxy)—N-(2-(2,6-dioxopiperidin-3-yl)-1-oxoisoindolin-4-yl)acetamide] the same measures were 1 to 100 nM and over 300 nM.
In the case of `COc1cc(N2CCC(N3CCN(CC(=O)NC4CCN(CC(=O)Nc5cccc6c5CN(C5CCC(=O)NC5=O)C6=O)CC4)CC3)CC2)ccc1Nc1ncc(Cl)c(Nc2ccccc2P(C)(C)=O)n1` (stereo not drawn) [Compound C88, 2-(4-(1-(4-((5-chloro-4-((2-(dimethylphosphoryl)phenyl)amino)pyrimidin-2-yl)amino)-3-methoxyphenyl)piperidin-4-yl)piperazin-1-yl)-N-(1-(2-((2-(2,6-dioxopiperidin-3-yl)-1-oxoisoindolin-4-yl)amino)-2-oxoethyl)piperidin-4-yl)acetamide], the IC50 at EGFR^L858R/T790M/C797S lay in the range of 1 to 100 nM. In addition, the GI50 in test [1] was over 300 nM.
The like results for `COc1cc(N2CCC(N3CCN(C(=O)CN4CCN(C(=O)COc5cccc6c5C(=O)N(C5CCC(=O)NC5=O)C6=O)CC4)CC3)CC2)ccc1Nc1ncc(Cl)c(Nc2ccccc2P(C)(C)=O)n1` (stereo not drawn) [Compound C99, 4-(2-(4-(2-(4-(1-(4-((5-chloro-4-((2-(dimethylphosphoryl)phenyl)amino)pyrimidin-2-yl)amino)-3-methoxyphenyl)piperidin-4-yl)piperazin-1-yl)-2-oxoethyl)piperazin-1-yl)-2-oxoethoxy)-2-(2,6-dioxopiperidin-3-yl)isoindoline-1,3-dione] were, in that order, 1 to 100 nM and over 300 nM.
In the case of `COc1cc(N2CCC(N3CCN(C(=O)COc4cccc5c4C(=O)N(C4CCC(=O)NC4=O)C5=O)CC3)CC2)ccc1Nc1ncc(Cl)c(Nc2ccccc2P(C)(C)=O)n1` (stereo not drawn) [Compound C101, 4-(2-(4-(1-(4-((5-chloro-4-((2-(dimethylphosphoryl)phenyl)amino)pyrimidin-2-yl)amino)-3-methoxyphenyl)piperidin-4-yl)piperazin-1-yl)-2-oxoethoxy)-2-(2,6-dioxopiperidin-3-yl)isoindoline-1,3-dione], the IC50 on EGFR^L858R/T790M/C797S was 1 to 100 nM. Also, the GI50 in test [1] is over 300 nM.
On to `COc1cc(N2CCC(N3CCN(C(=O)C4(C(=O)Oc5cccc6c5C(=O)N(C5CCC(=O)NC5=O)C6=O)CC4)CC3)CC2)ccc1Nc1ncc(Cl)c(Nc2ccccc2P(C)(C)=O)n1` (stereo not drawn) [Compound C104, 1-(4-(1-(4-((5-chloro-4-((2-(dimethylphosphoryl)phenyl)amino)pyrimidin-2-yl)amino)-3-methoxyphenyl)piperidin-4-yl)piperazine-1-carbonyl)cyclopropane-1-carboxylate 2-(2,6-dioxopiperidin-3-yl)-1,3-dioxoisoindolin-4-yl ester], for which, at EGFR^L858R/T790M/C797S, the IC50 lay in the range of 1 to 100 nM. Besides, in test [1], the GI50 was over 300 nM.
On to `COc1cc(N2CCC(N3CCN(CC(=O)N4CC(F)(F)C[C@H]4C(=O)Nc4cccc5c4CN(C4CCC(=O)NC4=O)C5=O)CC3)CC2)ccc1Nc1ncc(Cl)c(Nc2ccccc2P(C)(C)=O)n1` (stereo partly drawn) [Compound C110, (2S)-1-(2-(4-(1-(4-((5-chloro-4-((2-(dimethylphosphoryl)phenyl)amino)pyrimidin-2-yl)amino)-3-methoxyphenyl)piperidin-4-yl)piperazin-1-yl)acetyl)-N-(2-(2,6-dioxopiperidin-3-yl)-1-oxoisoindolin-4-yl)-4,4-difluoropyrrolidine-2-carboxamide], for which the IC50 at EGFR^L858R/T790M/C797S was 1 to 100 nM. Moreover, the GI50 in test [1] was over 300 nM.
Turning to `COc1cc(N2CCC(N3CCN(CC(=O)N[C@H](COc4cccc5c4C(=O)N(C4CCC(=O)NC4=O)C5=O)C(C)(C)C)CC3)CC2)ccc1Nc1ncc(Cl)c(Nc2ccccc2P(C)(C)=O)n1` (stereo partly drawn) [Compound C112, 2-(4-(1-(4-((5-chloro-4-((2-(dimethylphosphoryl)phenyl)amino)pyrimidin-2-yl)amino)-3-methoxyphenyl)piperidin-4-yl)piperazin-1-yl)-N-((2S)-1-((2-(2,6-dioxopiperidin-3-yl)-1,3-dioxoisoindolin-4-yl)oxy)-3,3-dimethylbutan-2-yl)acetamide], the half-maximal inhibitory concentration (IC50) at EGFR^L858R/T790M/C797S was 1 to 100 nM.
Take `COc1cc(N2CCC(N3CCN(CCCc4ccc(-c5ccc6c(c5)CN(C5CCC(=O)NC5=O)C6=O)cc4)CC3)CC2)ccc1Nc1ncc(Cl)c(Nc2ccccc2P(C)(C)=O)n1` (stereo not drawn) [Compound C235, 3-(5-(4-(3-(4-(1-(4-((5-chloro-4-((2-(dimethylphosphoryl)phenyl)amino)pyrimidin-2-yl)amino)-3-methoxyphenyl)piperidin-4-yl)piperazin-1-yl)propyl)phenyl)-1-oxoisoindolin-2-yl)piperidine-2,6-dione]: the GI50 in test [1] and in test [2] was 1 to 100 nM each time.
Regarding `COc1cc(N2CCC(N3CCN(CCCCC#Cc4ccc(F)c5c4CN(C4CCC(=O)NC4=O)C5=O)CC3)CC2)ccc1Nc1ncc(Cl)c(Nc2ccccc2P(C)(C)=O)n1` (stereo not drawn) [Compound C244, 3-(4-(6-(4-(1-(4-((5-chloro-4-((2-(dimethylphosphoryl)phenyl)amino)pyrimidin-2-yl)amino)-3-methoxyphenyl)piperidin-4-yl)piperazin-1-yl)hex-1-yn-1-yl)-7-fluoro-1-oxoisoindolin-2-yl)piperidine-2,6-dione], the GI50 in test [1] and in test [2] was 1 to 100 nM throughout.
As to `COc1cc(N2CCC(N3CCN(CCCCCOc4cccc5c4CN(C4CCC(=O)NC4=O)C5=O)CC3)CC2)c(C)cc1Nc1ncc(Br)c(Nc2ccc3nccnc3c2P(C)(C)=O)n1` (stereo not drawn) [Compound C246, 3-(4-((5-(4-(1-(4-((5-bromo-4-((5-(dimethylphosphoryl)quinoxalin-6-yl)amino)pyrimidin-2-yl)amino)-5-methoxy-2-methylphenyl)piperidin-4-yl)piperazin-1-yl)pentyl)oxy)-1-oxoisoindolin-2-yl)piperidine-2,6-dione], the GI50 in test [1] and in test [2] was 1 to 100 nM throughout.
Take `COc1cc(N2CCC3(CCN(CCCCCCc4cccc5c4CN(C4CCC(=O)NC4=O)C5=O)CC3)CC2)c(C)cc1Nc1ncc(Br)c(Nc2ccc3nccnc3c2P(C)(C)=O)n1` (stereo not drawn) [Compound C299, 3-(4-(6-(9-(4-((5-bromo-4-((5-(dimethylphosphoryl)quinoxalin-6-yl)amino)pyrimidin-2-yl)amino)-5-methoxy-2-methylphenyl)-3,9-diazaspiro[5.5]undecan-3-yl)hexyl)-1-oxoisoindolin-2-yl)piperidine-2,6-dione]: the GI50 in test [1] and in test [2] was 1 to 100 nM in each case.

The values above are taken from US20220306659A1, “COMPOUND INHIBITING AND INDUCING DEGRADATION OF EGFR AND ALK” (BEIJING TIDE PHARMACEUTICAL CO., LTD., priority 2019, published 2022).
